Molecular target: T1, Glycine receptor subunit alpha-4 (Mus musculus, UniProt Q61603)
T1 sequence (Q61603 whole entry): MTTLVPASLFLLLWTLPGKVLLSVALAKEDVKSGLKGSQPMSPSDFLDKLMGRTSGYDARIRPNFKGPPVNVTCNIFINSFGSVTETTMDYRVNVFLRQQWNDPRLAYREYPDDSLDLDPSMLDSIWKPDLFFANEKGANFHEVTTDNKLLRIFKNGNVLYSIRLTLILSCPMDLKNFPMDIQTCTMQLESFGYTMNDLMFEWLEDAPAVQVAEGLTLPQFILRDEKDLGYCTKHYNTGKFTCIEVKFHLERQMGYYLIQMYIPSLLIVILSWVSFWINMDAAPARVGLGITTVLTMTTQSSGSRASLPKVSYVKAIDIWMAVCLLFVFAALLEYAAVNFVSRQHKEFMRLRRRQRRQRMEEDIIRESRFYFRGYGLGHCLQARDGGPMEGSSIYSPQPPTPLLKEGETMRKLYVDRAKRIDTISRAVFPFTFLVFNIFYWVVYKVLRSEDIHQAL
Experiment: ChEBML_219281
Protocol: The binding affinity was measured on glycine receptor using [3H]- strychnine as radioligand.

Cc1nccn1CC1CCc2c(c3ccccc3n2C)C1=O (stereo unspecified) [NSC_68647]
Ki: > 10 µM

— BindingDB's records for doi:10.1021/jm00075a026 (Solvay Duphar, 1994)
